Measured values published in US4507314A, “Drug for treating affections provoked by a too high histamine level, of the gastroduodenal mucosa and allergic affections” (Midit, Societe Fiduciaire, priority 1983, dated 1985).
pIC50: −log10 of the molar value. Like-named read-outs stand apart in the source and are kept apart here.

Assays:
[1] = test system: histamine level of the plasma
Text: (§1) Photographs of the ulcer and biopsies of the stomach mucosa were taken before and after each week of treatment.

[2] = test system: histamine levels in the fundus, corpus and antrum mucosa; conditions: 4 weeks
Text: as §1

[3] = test system: gastric ulcers induced in rats by immobilisation; conditions: intraperitoneal; expressed in terms of dry (+)-catechin; immobilised 12 hours
Method: (a) on ulcers induced by stress caused by immobilization: After one week adaptation to the environment, female rats, (30 animals per group, 5 per cage), were immobilised during 12 hours by wrapping them, under narcosis with ether, in a plaster bandage.
After sacrifice of the animals, the dissected stomach was visually inspected and the lesions of the mucosa were scored according to their number and their intensity.
The products to be tested were administered, immediately before the test, by intraperitoneal injection of 2 ml of a freshly prepared saline solution. The doses tested varied from 0.1 to 50 mg/kg. The controls received 2 ml of saline.

[4] = test system: stress induced gastric ulcers; conditions: 30 mg/kg oral, 3 times a day during 3 days; immobilisation 12 hours; control group 38%
Method: The tested product was given 3 times a day during the 3 days preceding the experiment. The last administration was given 1 hour before immobilisation of the rats during 12 hours.

[5] = test system: necrosis of the gastric mucosa induced by acetic acid; conditions: 150 mg/kg orally, twice a day during 5 days
Method: In rats fasted for 24 hours, necrosis of the gastric mucosa was induced by intra-gastric administration of acetic acid (1 ml at 20%) one hour before treatment.
Accordingly the rats were sacrified, the stomach mucosa was photographed and the lesions were scored.

[6] = test system: human duodenal ulcer; conditions: after 1 month of treatment, 1500 mg daily
Text: as §1

[7] = test system: intragastric pH; conditions: in vivo
Text: as §1

[8] = test system: leucocytes; conditions: preincubation 10 minutes at 37° C., pollen or house dust 30 minutes
Method: Then the histamin level was measured in the leucocyte suspension and the supernatant liquid and compared to the values obtained from the controls.

[9] = test system: histamine level in lung tissue; conditions: 30 mg/kg per os, 3 times a day during 3 days; five hours after the last treatment
Method: The drug was administered per os as a suspension in carboxymethyl cellulose (1% in water).

[10] = test system: rat peritoneal mastocytes; conditions: 10^-50 M (so in the source); 48/80 stimulated; 37° C., 10 minutes
[11] = test system: rat peritoneal mastocytes; conditions: 30 mg/kg per os, 3 times a day during 3 days; 0.5 μg/ml compound 48/80, 10 minutes at 37° C.
[12] = test system: histamine content in rat stomach mucosa; conditions: 30 mg/kg intraperitoneal
[13] = test system: histamine content in the lungs; conditions: 30 mg/kg intraperitoneal
[14] = test system: histamine level of the mucosa of the fundus, of the corpus and of the antrum; conditions: 3 days, healthy persons
[15] = target: T1, histidine decarboxylase (Oryctolagus cuniculus, UniProt G1TCH4); test: inhibition of histidine decarboxylase extracted from rabbit stomach, in vitro; conditions: read-out: IC50, inhibition of histidine decarboxylase, enzyme extracted from rabbit stomach
T1 sequence (G1TCH4 1-661): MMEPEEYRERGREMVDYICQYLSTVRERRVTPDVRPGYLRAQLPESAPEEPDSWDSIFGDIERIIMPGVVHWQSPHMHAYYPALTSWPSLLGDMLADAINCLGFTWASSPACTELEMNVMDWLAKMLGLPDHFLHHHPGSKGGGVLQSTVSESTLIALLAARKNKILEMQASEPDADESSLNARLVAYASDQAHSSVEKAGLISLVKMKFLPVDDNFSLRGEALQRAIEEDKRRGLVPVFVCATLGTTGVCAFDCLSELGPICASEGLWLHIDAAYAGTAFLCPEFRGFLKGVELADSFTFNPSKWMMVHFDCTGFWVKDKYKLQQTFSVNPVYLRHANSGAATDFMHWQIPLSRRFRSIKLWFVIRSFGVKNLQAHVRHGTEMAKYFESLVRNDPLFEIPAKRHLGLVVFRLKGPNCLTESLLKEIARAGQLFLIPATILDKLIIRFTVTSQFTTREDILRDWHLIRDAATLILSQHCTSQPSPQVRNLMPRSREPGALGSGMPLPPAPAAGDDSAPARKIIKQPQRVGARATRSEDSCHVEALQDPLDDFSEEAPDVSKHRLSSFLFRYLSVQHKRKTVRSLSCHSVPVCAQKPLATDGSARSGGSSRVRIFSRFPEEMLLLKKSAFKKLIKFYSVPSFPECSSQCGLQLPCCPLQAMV

[16] = 1500 mg daily, duodenal ulcer patients

**Q.** What does the source list for `CN/C(=N/CCSCc1nc[nH]c1C)NC#N` [cimetidine, reference compound]?
**A.** effect on the histamine levels in the plasma ([1]; 800 mg cimetidine daily, 4 weeks): no notable effect or induced an increase; increase of the histamine levels in the plasma ([1]; in some cases, 800 mg cimetidine daily, 4 weeks): more than 10%; effect on the histamine levels in the stomach mucosa ([2]; 800 mg cimetidine daily): no notable effect or induced an increase; increase of the histamine levels in the stomach mucosa ([2]; in some cases, 800 mg cimetidine daily): more than 10%

**Q.** With (+)-catechin ascorbolysinate as the compound, how does the “ED50 in the gastric ulcers induced in rats by immobilisation” value [3] read?
**A.** Its value is 1.5 mg/kg.

**Q.** What does the source list for (+)-catechin hydrochlorolysinate?
**A.** ED50 in the gastric ulcers induced in rats by immobilisation [3]: 5 mg/kg; proportion of rats with severe lesions [4]: 15%; reduction of the number of animals with severe lesions [5]: 50%; mean histamine level of the plasma after treatment ([1]; 1500 mg daily, decreased from 0.7 (±0.3) ng/ml, observed after one week, constant during the following 3 weeks): 0.3 (±0.1) ng/ml; decrease of the histamine levels in the fundus, corpus and antrum mucosa [2, 16]: ~20%; decrease of the number of mastocytes in the fundus, corpus and antrum mucosa [2, 16]: ~20%; ulcer diameter of the other (not fully recovered) patients [6]: decreased significantly; patients fully recovered ([6]; out of 11): 7 patients; effect on the intragastric pH [7]: no effect; release inhibition, leucocytes ([8]; 10^-5 M): 45%; release inhibition, leucocytes ([8]; 10^-6 M): 45%; decrease of the histamine level in the homogenized lung tissue compared to the control group [9]: 38%; inhibition of release of histamine from rat peritoneal mastocytes [10]: 27%; decrease of histamine release of the mastocytes compared to the controls [11]: 22%; decrease of the histamine content in rat stomach mucosa [12]: 33%; decrease of the histamine content in the lungs [13]: 38%; number of mastocytes ([14]; 500, 1000 or 1500 mg per day per os, same way as the histamine level): decreased in the same way; decrease of the histamine level of the mucosa of the fundus, of the corpus and of the antrum ([14]; highest dose (1500 mg per day), per os, dose dependent): 30%; pIC50 [15]: 4.00
